Where a SMILES comes first, the peptide text is derived from it. The star is where a group is joined. Cbz = O=C(OCc1ccccc1)*; CH2F = FC*
Legend:
Format in all cases: cell-based, Chinese Hamster
β-secretase = test: C99 levels by Western blot (WO2) in CAB cells; details: STS-induced apoptosis, CHO cells expressing APP751 and BACE (CAB)
Description: (§1) Chinese Hamster Ovary (CHO) cells expressing APP751 and BACE (CAB), CHO cells expressing full-length APP and wild-type PS1 (CHO-APP751/PS1) or expressing C99 and wild-type PS1 (CHO-CC99/PS1), H4 human neuroglioma cells expressing APP751 (H4-APP751), mouse embryonic fibroblast (MEF), embryonic stem (ES) cells, and human epithelial A431 cells were grown as described previously (Marambaud, P. et al., Embo J 21, 1948-56 (2002); Cai, H. et al., Nat Neurosci 4, 233-4 (2001); Sato, N. et al., Nat Cell Biol 2, 863-70 (2000); Puglielli, L., Ellis, B. C., Saunders, A. J. & Kovacs, D. M., J Biol Chem 278, 19777-83 (2003); Wolfe, M. S. et al., Nature 398, 513-7 (1999)). For the induction of apoptosis, we used staurosporine or etoposide (Calbiochem (EMD Biosciences, San Diego, Calif.)). For Aβ measurements, cells were seeded at the density of 0.5×10^6 cells per well in 6 well plates. After 48 hours, cells were treated with either STS (1 μM) for 6 hours. In order to inhibit caspase activation a sister plate of cells was pre-treated with zVAD (1001M, Enzyme Systems Products) for 1 hour before STS treatment. For time-course experiments, cells were seeded at the density of 2×10^6 cells per 100 mm dish and treated with STS (1 μM) or etoposide (100 μg/mL). At different time points (0, 3, 6, 9, 12 and 24 hours), the cells were scraped, centrifuged and then lysed in buffer containing 1% NP40. […]

[1] = test system: Aβ production in CHO cells overexpressing APP751 and PS1 WT; test: Secreted Aβ ELISA in CHO cells overexpressing APP751 and PS1 during induced apoptosis
Description: We examined Aβ generation induced by apoptosis in CHO cell lines. We used CHO cell lines stably overexpressing both APP751 and PS1 WT. For the induction of apoptosis, we used 1 μM staurosporine (STS) in serum free media. Secreted Aβ was measured in the conditioned media of cells treated with STS for 6 hrs using a sensitive ELISA assay [courtesy of Dr. Dennis Selkoe; M. S. Wolfe et al., Nature 398, 513-7 (1999)].
Treatment with either STS for 6 hrs or etoposide for 12 hrs induced from 10 to 20% of cell death assayed by MTT assay, which is a colorimetric short-term suspension culture assay in which the yellow tetrazolium salt (MTT) is reduced in metabolically active cells to form insoluble purple formazan crystals, which are solubilized by the addition of a detergent.
Chinese Hamster Ovary (CHO) cells expressing APP751 and BACE (CAB), CHO cells expressing full-length APP and wild-type PS1 (CHO-APP751/PS1) or expressing C99 and wild-type PS1 (CHO-CC99/PS1), H4 human neuroglioma cells expressing APP751 (H4-APP751), mouse embryonic fibroblast (MEF), embryonic stem (ES) cells, and human epithelial A431 cells were grown as described previously (Marambaud, P. et al., Embo J 21, 1948-56 (2002); Cai, H. et al., Nat Neurosci 4, 233-4 (2001); Sato, N. et al., Nat Cell Biol 2, 863-70 (2000); Puglielli, L., Ellis, B. C., Saunders, A. J. & Kovacs, D. M., J Biol Chem 278, 19777-83 (2003); Wolfe, M. S. et al., Nature 398, 513-7 (1999)). For the induction of apoptosis, we used staurosporine or etoposide (Calbiochem (EMD Biosciences, San Diego, Calif.)). For Aβ measurements, cells were seeded at the density of 0.5×10^6 cells per well in 6 well plates. After 48 hours, cells were treated with either STS (1 μM) for 6 hours. […] For time-course experiments, cells were seeded at the density of 2×10^6 cells per 100 mm dish and treated with STS (1 μM) or etoposide (100 μg/mL). At different time points (0, 3, 6, 9, 12 and 24 hours), the cells were scraped, centrifuged and then lysed in buffer containing 1% NP40. Western blot analysis was performed as previously described (Tesco, G., Koh, Y. H. & Tanzi, R. E., J Biol Chem 278, 46074-80 (2003)). Densitometry analysis was performed on a Macintosh computer using the public domain NIH Image program (developed at the U.S. National Institutes of Health and available on the Internet at http://rsb.info.nih.gov/nih-image/).
(§2) Secreted Aβ1-total was measured in the conditioned media of untreated cells or of cells treated with STS or STS plus zVAD using a sensitive ELISA (Wolfe, M. S. et al., Nature 398, 513-7 (1999). At least three different experiments were carried out and each experiment was performed at least in triplicate.

γ-secretase = test: Secreted Aβ1-total ELISA in CHO-CC99/PS1 cells; details: STS-treated CHO-CC99/PS1 cells, 6 hours
Description: as §1, with “hours.” for “hours. In order to inhibit caspase activation a sister plate of cells was pre-treated with zVAD (1001M, Enzyme Systems Products) for 1 hour before STS treatment. For time-course experiments, cells were seeded at the density of 2×10^6 cells per 100 mm dish and treated with STS (1 μM) or etoposide (100 μg/mL). At different time points (0, 3, 6, 9, 12 and 24 hours), the cells were scraped, centrifuged and then lysed in buffer containing 1% NP40.”
as §2, with “triplicate. […]” for “triplicate.”

BACE [2] = test: BACE protein levels by Western blot and densitometry in CAB cells
Description: Chinese Hamster Ovary (CHO) cells expressing APP751 and BACE (CAB), CHO cells expressing full-length APP and wild-type PS1 (CHO-APP751/PS1) or expressing C99 and wild-type PS1 (CHO-CC99/PS1), H4 human neuroglioma cells expressing APP751 (H4-APP751), mouse embryonic fibroblast (MEF), embryonic stem (ES) cells, and human epithelial A431 cells were grown as described previously (Marambaud, P. et al., Embo J 21, 1948-56 (2002); Cai, H. et al., Nat Neurosci 4, 233-4 (2001); Sato, N. et al., Nat Cell Biol 2, 863-70 (2000); Puglielli, L., Ellis, B. C., Saunders, A. J. & Kovacs, D. M., J Biol Chem 278, 19777-83 (2003); Wolfe, M. S. et al., Nature 398, 513-7 (1999)). For the induction of apoptosis, we used staurosporine or etoposide (Calbiochem (EMD Biosciences, San Diego, Calif.)). For Aβ measurements, cells were seeded at the density of 0.5×10^6 cells per well in 6 well plates. After 48 hours, cells were treated with either STS (1 μM) for 6 hours. In order to inhibit caspase activation a sister plate of cells was pre-treated with zVAD ([…], Enzyme Systems Products) for 1 hour before STS treatment. For time-course experiments, cells were seeded at the density of 2×10^6 cells per 100 mm dish and treated with STS (1 μM) or etoposide (100 μg/mL). At different time points (0, 3, 6, 9, 12 and 24 hours), the cells were scraped, centrifuged and then lysed in buffer containing 1% NP40. Western blot analysis was performed as previously described (Tesco, G., Koh, Y. H. & Tanzi, R. E., J Biol Chem 278, 46074-80 (2003)). Densitometry analysis was performed on a Macintosh computer using the public domain NIH Image program (developed at the U.S. National Institutes of Health and available on the Internet at http://rsb.info.nih.gov/nih-image/).
It has been previously shown that overexpression of BACE enhances β-secretase cleavage of APP leading to the accumulation of intracellular C99 (Vassar, R. et al., Science 286, 735-41 (1999)). We first asked whether apoptosis/caspase activation leads to accumulation of C99 owing to increased β-secretase activity.

BACE [3] = test: BACE protein levels by Western blot in CHO cells overexpressing APP751 and PS1WT
Excerpt: We examined whether the apoptosis-mediated increase in Aβ generation was associated with changes in the levels and activities of BACE and β-secretase. […] In addition, upregulation of BACE occured also in H4 human neuroglioma (FIG. 3B) and in BACE+/+ mouse fibroblasts (FIG. 3C). BACE−/− mouse fibroblasts were used to show the specificity of the antibody used to detect BACE (FIG. 3C).
as §1, with “hours.” for “hours. In order to inhibit caspase activation a sister plate of cells was pre-treated with zVAD (1001M, Enzyme Systems Products) for 1 hour before STS treatment. For time-course experiments, cells were seeded at the density of 2×10^6 cells per 100 mm dish and treated with STS (1 μM) or etoposide (100 μg/mL). At different time points (0, 3, 6, 9, 12 and 24 hours), the cells were scraped, centrifuged and then lysed in buffer containing 1% NP40.”

[4] = 1 μM STS in serum free media, 6 hrs, p<0.05 t-test
[5] = etoposide 100 μg/mL + 200 μM zVAD, 12 hrs, compared to etoposide treated cells
[6] = zVAD 200 μM pretreated 1 hr before STS, compared to STS-treated cells, p<0.05

Row | SMILES | levels of C99 (β-secretase) | Secreted Aβ1-42 [1, 4] | Secreted Aβtotal [1, 4] | Aβ1-total increase ([1]; STS-treated CHO-APP751/PS1 cells, 6 hours) [fold] | Aβ1-total increase compared to untreated cells (γ-secretase) [fold] | BACE protein levels increase (BACE [2]; after 6 hours or 24 hours of STS treatment, CAB cells) [fold] | BACE protein levels (BACE [3]; after 24 hrs of STS treatment) | Secreted Aβ42 [1, 5] | Secreted Aβtotal [1, 5] | Secreted Aβ1-42 [1, 6] | Secreted Aβtotal [1, 6] | BACE accumulation during STS-induced apoptosis (BACE [2]; zVAD, both CAB and H4-APP751 cells) | BACE upregulation during STS-induced apoptosis (BACE [3]; zVAD 100 μM, all cell types (CHO, H4 human neuroglioma, BACE+/+ mouse fibroblasts))
1 | CN[C@@H]1C[C@H]2O[C@@](C)([C@@H]1OC)n1c3ccccc3c3c4c(c5c6ccccc6n2c5c31)C(=O)NC4 [STS, staurosporine] | increased | significantly increased | significantly increased | ~2.5 | ~1.5 | ~4 | significant increase | – | – | – | – | – | –
2 | COC(=O)C[C@H](NC(=O)[C@H](C)NC(=O)[C@@H](NC(=O)OCc1ccccc1)C(C)C)C(=O)CF [zVAD] (Cbz-Val-Ala-Asp(OMe)-CH2F) | – | – | – | – | – | – | – | significantly attenuate | significantly attenuate | significantly reduced | significantly reduced | prevented BACE accumulation | prevented BACE upregulation

Source: patent US7326540B2, “Methods for identifying compounds that modulate stabilization of secretase-associated proteins” (priority 2003, dated 2008)
